In patent publication US6780421B1, “Adjuvant for a vaccine composition” (priority 1997, dated 2004):

What was measured:
[1] = test system: influenza virus (Strain A/Singapore); assay: Anti-HA antibody titration by inhibition of influenza virus-induced haemagglutination after subcutaneous immunization; format: in vivo, Balb/c mice; settings: 5 μg of HA, in comparison with mice which received the vaccine without adjuvant (Group A)
Experimental: 5 groups of 4 Balb/c mice are immunized by 3 subcutaneous injections performed on D0, D21 and D36 with the following vaccine compositions:
Group A: 0.3 ml of diluted strain A/Singapore monovalent influenza vaccine containing 5 μg of HA in 0.3 ml of PBS,
Group B: 0.3 ml of vaccine composition obtained according to Example 2,
Group C: 0.3 ml of vaccine composition obtained according to Example 3,
Group D: 0.3 ml of vaccine composition obtained according to Example 6,
Group E: 0.3 ml of vaccine composition obtained according to Example 7.
In order to perform the assays for neutralizing antibodies, the sera of mice are sampled on D21, D36 and […], and the titration of anti-HA antibodies is performed by means of the technique of inhibition of influenza virus-induced haemagglutination.
The titres of neutralizing antibodies in the mouse sera are presented in the form of log2 of the highest dilution inducing haemagglutination inhibition.

[2] = test system: trivalent influenza vaccine comprising strain A/Texas, strain B/Panama and strain A/Beijing; assay: Tests with a trivalent influenza vaccine; format: in vivo
[3] = test system: strain A/Singapore monovalent influenza vaccine; assay: Immune response (HAI) as a function of the dose of DC chol; format: in vivo, female Balb/c mice; settings: DC chol/DOPC liposomes, injected D0 and D28, sera D42
[4] = test system: strain A/Singapore monovalent influenza vaccine; assay: Induction of antibody isotypes IgG1 and IgG2 (ELISA) in adult mice; format: in vivo, 8- to 10-week-old female BALB/c adult mice; settings: 400 μg of DC chol with DOPC
[5] = test system: strain A/Singapore monovalent influenza vaccine; assay: Induction of antibody isotypes (ELISA) in elderly mice; format: in vivo, 20 to 22-month-old mice; settings: primary and secondary response
Experimental: The same experiment is carried out exactly as in Example 12 but, in this instance, the mice tested are 20 to 22-month-old mice which are more difficult to stimulate.

[6] = test system: strain A/Singapore monovalent influenza vaccine; assay: Immunization by combined subcutaneous and intranasal administration; format: in vivo, BALB/c mice
Experimental: Two groups of 4 BALB/c mice are immunized twice with an interval of 4 weeks with, on each occasion, the following vaccine compositions:
Group 3 (G3):—a vaccine composition of 300 μl injected subcutaneously comprising 4 μg of HA (in the form of strain A/Singapore monovalent influenza vaccine) combined with […] of DC chol (in the form of DC chol/DOPC liposomes), and
a vaccine composition of 50 μl administered intranasally comprising 0.25 μg of HA (in the form of strain A/Singapore monovalent influenza vaccine) combined with 6 μg of DC chol (in the form of DC chol/DOPC liposomes),
Group 4 (G4):—a vaccine composition of 300 μl injected subcutaneously comprising 4 μg of HA combined with 200 μg of DC chol, and
a vaccine composition of 50 μl administered intranasally comprising 0.25 μg of HA combined with 200 μg of DC chol.
The sera of the immunized mice are sampled 3 weeks after the booster administration and, for each mouse, the level of neutralizing antibodies is assayed by the HAI haemagglutination inhibition technique.

For `CC(C)CCC[C@@H](C)[C@H]1CC[C@H]2[C@@H]3CC=C4C[C@@H](OC(=O)NCCN(C)C)CC[C@]4(C)[C@H]3CC[C@]12C` [DC chol, 3β-[N-(N′,N′-dimethylaminoethane)-carbamoyl]cholesterol], the “level of anti-HA antibodies (HAI)” value [1] was “markedly higher”, the “adjuvant power with trivalent influenza vaccine” value [2] was “adjuvant power” and the “dose of DC chol at which the maximum benefit of the adjuvant effect is obtained (HAI titre)” value [3] was “above 100 μg of DC chol/dose”. For the same compound, the “IgG2a produced (ELISA)” value [4] was “large increase”, the “adjuvant effect on IgG1 and IgG2 produced (ELISA)” value ([4]; primary and secondary response, in comparison to aluminium hydroxide) was “adjuvant effect” and the “adjuvant effect on IgG1 and IgG2 produced (ELISA), in particular IgG2a” value [5] was “adjuvant effect”. The “number of cells secreting IgG and IgA in the lungs (ELISPOT): dose effect” value ([6]; 6 versus 200 μg of DC chol) was “identical dose effect”, the “ratio of specific IgG (or IgA) to total IgG (or IgA) in nasopharyngeal lavage fluids: dose effect” value ([6]; 6 versus 200 μg of DC chol) was “identical dose effect” and the “serum IgG measured by ELISA: dose effect” value ([6]; 6 versus 200 μg of DC chol) was “identical dose effect”. The “level of neutralizing antibodies (HAI): effect of the dose of DC chol” value ([6]; dose of DC chol from 6 to 200 μg, mixed subcutaneous and intranasal) was “enables the immune response to be increased” and the “level of neutralizing antibodies (HAI): adjuvant effect” value ([6]; mixed subcutaneous and intranasal administration) was “adjuvant effect”.
